Reference: US6787132B1, “Combined chemo-immunotherapy with liposomal drugs and cytokines” (Yissum Research Development Company of the Hebrew …, priority 1997, dated 2004)

How the values were obtained:
Type in all cases: in vivo, BALB/c mice
M109 tumor cells = test: Second, more extensive M109 study: free or liposomal adriamycin with free IL-2, SSL-IL-2 or MLV-IL-2; conditions: 5×10^5 M109 cells i.p.; ADR or DOXIL 8 mg/kg i.p. day 7; IL-2 50,000 CU/mouse i.v. days 10, 13, 16; observed up to 120 days
Experimental: In a second, more extensive study, nine groups of BALB/c mice were injected intraperitoneally with 5×10^5 M109 tumor cells. Free adriamycin or DOXIL® (8 mg/kg) were administered intraperitoneally 7 days later, followed 3 days later by intravenous cytokine treatment. The cytokine, given once daily (50,000 CU/mouse) on days 10, 13 and 16, consisted of free IL-2, IL-2 in Formulation A (Stealth® PEGylated SUV), or IL-2 in Formulation B (9:1 molar DMPC/DMPG MLV).
Each group, consisting of 8 mice, and an untreated control group of 11 mice, were inspected for survival up to 120 days after tumor inoculation.

[1] = system: M109 tumor cells (lung adenocarcinoma); test: Metastatic lung adenocarcinoma model: survival of mice injected intravenously with M109 tumor cells, IL-2 in PEGylated SUV; conditions: 5×10^5 M109 cells i.v. day 0, ADR or DOXIL 8 mg/kg i.v. day 7, SSL-IL-2 50,000 CU/mouse i.v. days 11, 14, 17
Experimental: B2. Metastatic Lung Adenocarcinoma Model: IL-2 in MLV (Formulation B) and PEG-Derivatized SUV (SSL). In this experiment, BALB/c mice were injected intravenously with 5×10^5 M109 tumor cells (day 0). Free adriamycin or DOXIL ®, respectively, were administered intravenously on day 7 (8 mg/kg), followed […] by intravenous cytokine treatment. Liposomal IL-2 (Formulation A; PEGylated SUV containing IL-2) was given once daily (50,000 CU/mouse) on days 11, 14 and 17. Control groups received no treatment or received the IL-2 treatment alone.
(§1) Each group, consisting of 8-9 mice, was inspected for survival up to 100 days after tumor inoculation.

[2] = system: C26 colon carcinoma cells; test: Subcutaneous colon carcinoma model (footpad), IL-2 in MLV; conditions: 10^5 C26 cells in footpad, 8 mg/kg free or liposomal adriamycin i.v. day 7, IL-2 i.p.
Experimental: B3. Subcutaneous colon carcinoma model: IL-2 in MLV. In this test, 7 groups of BALB/c mice were injected in the footpad with 10^5 C26 colon carcinoma cells.

[3] = system: M109 tumor cells (lung adenocarcinoma); test: Lung adenocarcinoma model: survival of mice injected intraperitoneally with M109 tumor cells, IL-2 in MLV; conditions: 5×10^5 M109 cells i.p. day 0, ADR or DOXIL 8 mg/kg i.v. day 7, MLV-IL-2 50,000 CU/mouse i.p. days 10, 13, 16
Experimental: B1. Lung Adenocarcinoma Model: IL-2 in MLV. Six groups of BALB/c mice were injected intraperitoneally with 5×10^5 M109 tumor cells (day 0). Free adriamycin or DOXIL®, respectively, were administered intravenously on day 7 at a dose of 8 mg/kg, and intraperitoneal cytokine treatment was initiated 3 days later. Liposomal IL-2 (formulation B; MLV DMPC/DMPG (9:1 mole ratio) liposomes containing IL-2) was given once daily (50,000 CU/mouse) on days 10, 13 and 16. Control groups received no treatment or received the IL-2 treatment alone.
as §1

COc1cccc2c1C(=O)c1c(O)c3c(c(O)c1C2=O)C[C@@](O)(C(=O)CO)C[C@@H]3O[C@H]1C[C@H](N)[C@H](O)[C@H](C)O1 [ADR, adriamycin (doxorubicin)]
MEDIAN SURVIVAL (M109 tumor cells): 100 days | NUMBER OF TUMOR FREE MICE/TOTAL (M109 tumor cells): 4/8 | MEDIAN SURVIVAL ([1]; observed up to 100 days): 56 days | NUMBER OF SURVIVING MICE/TOTAL ([1]; survival up to 100 days): 2/8 | NUMBER OF TUMOR FREE MICE, DAY 30 ([2]; day 30): 0/7 | NUMBER OF TUMOR FREE MICE, DAY 65 ([2]; day 65): 0/7 | MEDIAN SURVIVAL ([3]; observed up to 100 days): 42 days | NUMBER OF SURVIVING MICE/TOTAL ([3]; survival up to 100 days): 0/8
